Source: PMC11822212, “High-throughput screening identifies Aurora kinase B as a critical therapeutic target for Merkel cell carcinoma” (Nature Communications, 2025)
Values joined by “and” are separate entries in the source; they are usually repeats but may differ in a detail not shown here. Identical values can stand only once. Counter-ions that a name gives are not always drawn. Like-named read-outs stand apart in the source and are kept apart here.

Legend:
Experiment in all cases: qHTS cell viability (CellTiter-Glo, 72 h; primary and follow-up small molecule screen)
Assay type in all cases: cell-based, human
UISO cells (VN-MCC) = system: UISO cells (VN-MCC)
MCC13 cells (VN-MCC) = system: MCC13 cells (VN-MCC)
MKL-1 cells (VP-MCC) = system: MKL-1 cells (VP-MCC)
MKL-2 cells (VP-MCC) = system: MKL-2 cells (VP-MCC)
MCC26 cells (VN-MCC) = system: MCC26 cells (VN-MCC)
WAGA cells (VP-MCC) = system: WAGA cells (VP-MCC)
[1] = follow-up screen, UISO, replicate 1
[2] = follow-up screen, UISO, replicate 2
[3] = follow-up screen, UISO, replicate 3
[4] = follow-up screen, MCC13, replicate 1
[5] = follow-up screen, MCC13, replicate 2
[6] = follow-up screen, MCC13, replicate 3
[7] = follow-up screen, MKL-1, replicate 1
[8] = follow-up screen, MKL-1, replicate 2
[9] = follow-up screen, MKL-1, replicate 3
[10] = follow-up screen, MKL-2, replicate 1
[11] = follow-up screen, MKL-2, replicate 2
[12] = follow-up screen, MKL-2, replicate 3
[13] = follow-up screen, MCC26, replicate 1
[14] = follow-up screen, MCC26, replicate 2
[15] = follow-up screen, MCC26, replicate 3
[16] = follow-up screen, WAGA, replicate 1
[17] = follow-up screen, WAGA, replicate 2
[18] = follow-up screen, WAGA, replicate 3

| SMILES | Area under the dose-response curve (AUC) UISO Replicate 1 (UISO cells (VN-MCC); [1]) | Area under the dose-response curve (AUC) UISO Replicate 2 (UISO cells (VN-MCC); [2]) | Area under the dose-response curve (AUC) UISO Replicate 3 (UISO cells (VN-MCC); [3]) | Area under the dose-response curve (AUC) MCC13 Replicate 1 (MCC13 cells (VN-MCC); [4]) | Area under the dose-response curve (AUC) MCC13 Replicate 2 (MCC13 cells (VN-MCC); [5]) | Area under the dose-response curve (AUC) MCC13 Replicate 3 (MCC13 cells (VN-MCC); [6]) | Area under the dose-response curve (AUC) MKL-1 Replicate 1 (MKL-1 cells (VP-MCC); [7]) | Area under the dose-response curve (AUC) MKL-1 Replicate 2 (MKL-1 cells (VP-MCC); [8]) | Area under the dose-response curve (AUC) MKL-1 Replicate 3 (MKL-1 cells (VP-MCC); [9]) | Area under the dose-response curve (AUC) MKL-2 Replicate 1 (MKL-2 cells (VP-MCC); [10]) | Area under the dose-response curve (AUC) MKL-2 Replicate 2 (MKL-2 cells (VP-MCC); [11]) | Area under the dose-response curve (AUC) MKL-2 Replicate 3 (MKL-2 cells (VP-MCC); [12]) | Area under the dose-response curve (AUC) MCC26 Replicate 1 (MCC26 cells (VN-MCC); [13]) | Area under the dose-response curve (AUC) MCC26 Replicate 2 (MCC26 cells (VN-MCC); [14]) | Area under the dose-response curve (AUC) MCC26 Replicate 3 (MCC26 cells (VN-MCC); [15]) | Area under the dose-response curve (AUC) WAGA Replicate 1 (WAGA cells (VP-MCC); [16]) | Area under the dose-response curve (AUC) WAGA Replicate 2 (WAGA cells (VP-MCC); [17]) | Area under the dose-response curve (AUC) WAGA Replicate 3 (WAGA cells (VP-MCC); [18]) | also measured |
| --- | --- | --- | --- | --- | --- | --- | --- | --- | --- | --- | --- | --- | --- | --- | --- | --- | --- | --- | --- |
| O=c1c(O)c(-c2ccccc2)oc2cc(O)cc(O)c12 [Galangin] | 481.0 | 489.8 | 457.6 | 503.7 | 491.8 | 491.4 | 490.3 | 490.8 | 492.0 | 477.3 | 508.2 | 500.6 | 449.4 | 457.3 | 461.1 | 519.0 | 499.5 | 488.3 |  |
| CCOC(=O)c1cnc2ccc(-c3cncc(NS(=O)(=O)c4ccccc4)c3)cn12 [HS-173] |  |  |  |  |  |  |  |  |  |  |  |  |  |  |  |  |  |  | Area under the dose-response curve (AUC) (UISO cells (VN-MCC)): 373.6 and 378.4 and 376.1; Area under the dose-response curve (AUC) (MCC13 cells (VN-MCC)): 410.4 and 416.6 and 423.4; Area under the dose-response curve (AUC) (MKL-1 cells (VP-MCC)): 400.2 and 402.4 and 398.2; Area under the dose-response curve (AUC) (MKL-2 cells (VP-MCC)): 425.2 and 393.3 and 372.1; Area under the dose-response curve (AUC) (MCC26 cells (VN-MCC)): 371.1 and 368.1 and 383.3; Area under the dose-response curve (AUC) (WAGA cells (VP-MCC)): 390.4 and 391.0 and 384.0 |
| CCN(CCO)CCCC(C)Nc1ccnc2cc(Cl)ccc12 (stereo not drawn) [Hydroxychloroquine sulfate] | 504.6 | 448.6 | 420.1 | 495.6 | 487.6 | 467.0 | 541.8 | 486.3 | 499.9 | 454.2 | 416.6 | 490.5 | 423.8 | 423.8 | 468.3 | 540.2 | 519.3 | 458.7 |  |
| CC(=O)[C@]1(O)Cc2c(O)c3c(c(O)c2[C@@H](O[C@H]2C[C@H](N)[C@H](O)[C@H](C)O2)C1)C(=O)c1ccccc1C3=O [Idarubicin hydrochloride] | 184.7 | 180.9 | 186.4 | 321.5 | 353.4 | 356.2 | 222.7 | 242.3 | 233.3 | 203.6 | 200.3 | 265.0 | 293.6 | 292.8 | 227.6 | 205.3 | 258.0 | 233.3 |  |
| Oc1ccc(C2=Cc3ccc(O)cc3OC2)cc1 [Idronoxil] |  |  |  |  |  |  |  |  |  |  |  |  |  |  |  |  |  |  | Area under the dose-response curve (AUC) (UISO cells (VN-MCC)): 422.5 and 447.1 and 401.0; Area under the dose-response curve (AUC) (MCC13 cells (VN-MCC)): 415.6 and 455.9 and 456.9; Area under the dose-response curve (AUC) (MKL-1 cells (VP-MCC)): 285.6 and 303.3 and 334.8; Area under the dose-response curve (AUC) (MKL-2 cells (VP-MCC)): 351.5 and 302.3 and 331.4; Area under the dose-response curve (AUC) (MCC26 cells (VN-MCC)): 408.0 and 413.9 and 448.0; Area under the dose-response curve (AUC) (WAGA cells (VP-MCC)): 395.2 and 366.0 and 386.6 |
| CN(C(Cc1ccc(O[S+](=O)([O-])c2cccc3cnccc23)cc1)C(=O)N1CCN(c2ccccc2)CC1)[S+](=O)([O-])c1cccc2cnccc12 (stereo not drawn) [KN-62] | 473.7 | 471.7 | 409.6 | 505.2 | 474.1 | 504.9 | 492.0 | 481.7 | 479.5 | 465.4 | 466.3 | 472.5 | 447.5 | 438.4 | 461.3 | 521.5 | 471.3 | 468.9 |  |
| O=c1cc(-c2ccc(O)c(O)c2)oc2cc(O)cc(O)c12 [Luteolin] | 505.5 | 498.3 | 457.3 | 522.6 | 523.6 | 493.6 | 484.8 | 451.1 | 471.1 | 469.9 | 500.3 | 460.5 | 469.7 | 436.1 | 492.5 | 542.7 | 525.5 | 485.9 |  |
| CN(C)c1ccc(C(=C2C=CC(=[N+](C)C)C=C2)c2ccccc2)cc1.CN(C)c1ccc(C(=C2C=CC(=[N+](C)C)C=C2)c2ccccc2)cc1.O=C(O)C(=O)O.O=C([O-])C(=O)O.O=C([O-])C(=O)O [Malachite green oxalate] |  |  |  |  |  |  |  |  |  |  |  |  |  |  |  |  |  |  | Area under the dose-response curve (AUC) UISO Replicate 1 (UISO cells (VN-MCC)): 285.6; Area under the dose-response curve (AUC) UISO Replicate 2 (UISO cells (VN-MCC)): 315.1; Area under the dose-response curve (AUC) UISO Replicate 3 (UISO cells (VN-MCC)): 271.1; Area under the dose-response curve (AUC) MCC13 Replicate 1 (MCC13 cells (VN-MCC)): 284.7; Area under the dose-response curve (AUC) MCC13 Replicate 2 (MCC13 cells (VN-MCC)): 297.6; Area under the dose-response curve (AUC) MCC13 Replicate 3 (MCC13 cells (VN-MCC)): 312.3; Area under the dose-response curve (AUC) MKL-1 Replicate 1 (MKL-1 cells (VP-MCC)): 266.3; Area under the dose-response curve (AUC) MKL-1 Replicate 2 (MKL-1 cells (VP-MCC)): 258.0; Area under the dose-response curve (AUC) MKL-1 Replicate 3 (MKL-1 cells (VP-MCC)): 280.5; Area under the dose-response curve (AUC) MKL-2 Replicate 1 (MKL-2 cells (VP-MCC)): 272.5; Area under the dose-response curve (AUC) MKL-2 Replicate 2 (MKL-2 cells (VP-MCC)): 267.6; Area under the dose-response curve (AUC) MKL-2 Replicate 3 (MKL-2 cells (VP-MCC)): 282.8; Area under the dose-response curve (AUC) MCC26 Replicate 1 (MCC26 cells (VN-MCC)): 302.0; Area under the dose-response curve (AUC) MCC26 Replicate 2 (MCC26 cells (VN-MCC)): 333.8; Area under the dose-response curve (AUC) MCC26 Replicate 3 (MCC26 cells (VN-MCC)): 303.0; Area under the dose-response curve (AUC) WAGA Replicate 1 (WAGA cells (VP-MCC)): 353.3; Area under the dose-response curve (AUC) WAGA Replicate 2 (WAGA cells (VP-MCC)): 347.4; Area under the dose-response curve (AUC) WAGA Replicate 3 (WAGA cells (VP-MCC)): 369.9 |
